From ChEMBL document CHEMBL1201862, “PubChem BioAssay data set” (2004)
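Each compound was tested at five concentrations against cells in 96-well plates for 48 hours. GI50 marks 50% less growth.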 Calls of active or inactive are those of the source. Cut-off read from the data, not from the text of the source: active = GI50 up to about 1.1 µM and inactive = higher.

How the values were obtained:
Test in all cases: NCI anticancer screen, dose series, 48 h
DLD-1 = system: DLD-1
HCC 2998 = system: HCC 2998
OVCAR-3 = system: OVCAR-3
SNB-75 = system: SNB-75
SNB-78 = system: SNB-78
SNB-19 = system: SNB-19
XF498 = system: XF498
HL-60 = system: HL-60
NCI-H460 = system: NCI-H460
OVCAR-5 = system: OVCAR-5
RXF 393 = system: RXF 393
CCRF-CEM = system: CCRF-CEM
SK-OV-3 = system: SK-OV-3
HOP-18 = system: HOP-18
SF-295 = system: SF-295
OVCAR-4 = system: OVCAR-4
NCI-H23 = system: NCI-H23
HCT-116 = system: HCT-116
DMS-114 = system: DMS-114
HOP-62 = system: HOP-62
OVCAR-8 = system: OVCAR-8
UACC-257 = system: UACC-257
A549 = system: A549
HCT-15 = system: HCT-15
HT-29 = system: HT-29
SK-MEL-5 = system: SK-MEL-5
M14 = system: M14
SK-MEL-28 = system: SK-MEL-28
Malme-3M = system: Malme-3M
A498 = system: A498
NCI-H226 = system: NCI-H226
RXF 631 = system: RXF 631
MOLT-4 = system: MOLT-4
LOX IMVI = system: LOX IMVI
CAKI-1 = system: CAKI-1
SF-539 = system: SF-539
KM-20L2 = system: KM-20L2
UO-31 = system: UO-31
786-0 = system: 786-0
EKVX = system: EKVX
SN12C = system: SN12C
SF-268 = system: SF-268
K562 = system: K562
DMS-273 = system: DMS-273
RPMI-8226 = system: RPMI-8226
M19-MEL = system: M19-MEL
UACC-62 = system: UACC-62
IGROV-1 = system: IGROV-1
KM12 = system: KM12
LXFL 529 = system: LXFL 529
COLO 205 = system: COLO 205
SK-MEL-2 = system: SK-MEL-2
HOP-92 = system: HOP-92
NCI-H522 = system: NCI-H522
U-251 = system: U-251
SR = system: SR
ACHN = system: ACHN
TK-10 = system: TK-10
SW-620 = system: SW-620

CCOC(=O)C1=C(OC(OCC)C(CC)[Se]c2ccccc2)CCC1 (centres undefined)
GI50 (DLD-1): 19.3 µM (inactive) | GI50 (HCC 2998): 15.2 µM (inactive) | GI50 (OVCAR-3): 23.7 µM (inactive) | GI50 (SNB-75): 25.3 µM (inactive) | GI50 (SNB-78): 24.5 µM (inactive) | GI50 (SNB-19): 42.2 µM (inactive) | GI50 (XF498): 23.1 µM (inactive) | GI50 (HL-60): 12.4 µM (inactive) | GI50 (NCI-H460): 39.7 µM (inactive) | GI50 (OVCAR-5): 23.1 µM (inactive) | GI50 (RXF 393): 19.5 µM (inactive) | GI50 (CCRF-CEM): 11 µM (inactive) | GI50 (SK-OV-3): 92 µM (inactive) | GI50 (HOP-18): 23.1 µM (inactive) | GI50 (SF-295): 16.9 µM (inactive) | GI50 (OVCAR-4): 13.2 µM (inactive) | GI50 (NCI-H23): 12.5 µM (inactive) | GI50 (HCT-116): 20.4 µM (inactive) | GI50 (DMS-114): 4.62 µM (inactive) | GI50 (HOP-62): 78.5 µM (inactive) | GI50 (OVCAR-8): 33.2 µM (inactive) | GI50 (UACC-257): 28 µM (inactive) | GI50 (A549): 77.4 µM (inactive) | GI50 (HCT-15): 14.7 µM | GI50 (HT-29): 25.1 µM (inactive) | GI50 (SK-MEL-5): 12.6 µM (inactive) | GI50 (M14): 15.1 µM (inactive) | GI50 (SK-MEL-28): 32.3 µM (inactive) | GI50 (Malme-3M): 4.58 µM (inactive) | GI50 (A498): 41.2 µM (inactive) | GI50 (NCI-H226): 18.3 µM (inactive) | GI50 (RXF 631): 10.3 µM (inactive) | GI50 (MOLT-4): 20.1 µM (inactive) | GI50 (LOX IMVI): 7.31 µM (inactive) | GI50 (CAKI-1): 44.2 µM (inactive) | GI50 (SF-539): 19.8 µM (inactive) | GI50 (KM-20L2): 29.8 µM (inactive) | GI50 (UO-31): 28.9 µM (inactive) | GI50 (786-0): 15.5 µM (inactive) | GI50 (EKVX): 29.2 µM (inactive) | GI50 (SN12C): 17.1 µM (inactive) | GI50 (SF-268): 18.7 µM (inactive) | GI50 (K562): 44 µM (inactive) | GI50 (DMS-273): 13.2 µM (inactive) | GI50 (RPMI-8226): 19.3 µM (inactive) | GI50 (M19-MEL): 14.4 µM (inactive) | GI50 (UACC-62): 17.8 µM (inactive) | GI50 (IGROV-1): 25.6 µM (inactive) | GI50 (KM12): 39.4 µM (inactive) | GI50 (LXFL 529): 18.7 µM (inactive) | GI50 (COLO 205): 34.3 µM (inactive) | GI50 (SK-MEL-2): 31.5 µM (inactive) | GI50 (HOP-92): 19.3 µM (inactive) | GI50 (NCI-H522): 15.6 µM (inactive) | GI50 (U-251): 11.4 µM (inactive) | GI50 (SR): 19.3 µM (inactive) | GI50 (ACHN): 32.2 µM (inactive) | GI50 (TK-10): 82 µM (inactive)

c1ccc(SC2(Sc3ccccc3)CCCC2)cc1
GI50 (DLD-1): > 100 µM (inactive) | GI50 (OVCAR-3): > 100 µM (inactive) | GI50 (SNB-75): > 100 µM (inactive) | GI50 (SNB-78): > 100 µM (inactive) | GI50 (SNB-19): > 100 µM (inactive) | GI50 (XF498): > 100 µM (inactive) | GI50 (HL-60): > 100 µM (inactive) | GI50 (NCI-H460): > 100 µM (inactive) | GI50 (RXF 393): > 100 µM (inactive) | GI50 (CCRF-CEM): > 100 µM (inactive) | GI50 (SK-OV-3): > 100 µM (inactive) | GI50 (SF-295): > 100 µM (inactive) | GI50 (OVCAR-4): > 100 µM (inactive) | GI50 (NCI-H23): > 100 µM (inactive) | GI50 (HCT-116): > 100 µM (inactive) | GI50 (DMS-114): > 100 µM (inactive) | GI50 (SW-620): > 100 µM (inactive) | GI50 (HOP-62): > 100 µM (inactive) | GI50 (OVCAR-8): > 100 µM (inactive) | GI50 (UACC-257): > 100 µM (inactive) | GI50 (A549): > 100 µM (inactive) | GI50 (HCT-15): > 100 µM | GI50 (SK-MEL-5): > 100 µM (inactive) | GI50 (M14): > 100 µM (inactive) | GI50 (SK-MEL-28): > 100 µM (inactive) | GI50 (A498): > 100 µM (inactive) | GI50 (RXF 631): > 100 µM (inactive) | GI50 (MOLT-4): > 100 µM (inactive) | GI50 (LOX IMVI): > 100 µM (inactive) | GI50 (CAKI-1): > 100 µM (inactive) | GI50 (SF-539): > 100 µM (inactive) | GI50 (KM-20L2): > 100 µM (inactive) | GI50 (UO-31): > 100 µM (inactive) | GI50 (786-0): > 100 µM (inactive) | GI50 (EKVX): > 100 µM (inactive) | GI50 (SN12C): > 100 µM (inactive) | GI50 (SF-268): > 100 µM (inactive) | GI50 (K562): > 100 µM (inactive) | GI50 (DMS-273): > 100 µM (inactive) | GI50 (RPMI-8226): > 100 µM (inactive) | GI50 (M19-MEL): > 100 µM (inactive) | GI50 (UACC-62): > 100 µM (inactive) | GI50 (KM12): > 100 µM (inactive) | GI50 (COLO 205): > 100 µM (inactive) | GI50 (SK-MEL-2): > 100 µM (inactive) | GI50 (HOP-92): 71.1 µM (inactive) | GI50 (NCI-H522): > 100 µM (inactive) | GI50 (U-251): > 100 µM (inactive) | GI50 (SR): > 100 µM (inactive) | GI50 (ACHN): > 100 µM (inactive) | GI50 (TK-10): > 100 µM (inactive)
